Data set [1] deals with green peach aphid (Myzus persicae). Put plainly: Myzus test (MYZUPE spray treatment). Format: in vivo. The note with it: application rate 100 g/ha, after 6 days, Chinese cabbage leaf discs.
Data set [2] concerns caterpillars of the armyworm (Spodoptera frugiperda). Put plainly: Spodoptera frugiperda test (SPODFR spray treatment). Format: in vivo. The note with it: 168 h, read-out: activity (caterpillars killed). As to the method: After 7 days, the effect in % is determined.
The test system of data set [3] is Boophilus microplus. Briefly: Boophilus microplus test (BOOPMI injection). Format: in vivo. Particulars: application rate 20 μg/animal, injection into abdomen, after 7 days. Here is the method:
(§1) Solvent: dimethyl sulphoxide
The active compound solution is injected into the abdomen (Boophilus microplus), and the animals are transferred into dishes and stored in a climate-controlled room.
The activity is assessed by […] of fertile eggs. 100% means that none of the ticks has laid any fertile eggs.

Data set [4] concerns Lucilia cuprina larvae. Briefly: Lucilia cuprina test (LUCICU). Particulars: application rate 100 ppm, after 48 h. Format: in vivo.
From the text: as §1
Vessels containing horse meat treated with the active compound preparation of the desired concentration are populated with about 20 Lucilia cuprina larvae.

A short description of data set [5]: logP by HPLC on reversed-phase columns (C18), EEC Directive 79/831 Annex V.A8. Format: physicochemical. Particulars: pH 2.7, log P.
The subject of data set [6] is larvae of the mustard beetle (Phaedon cochleariae). Briefly: Phaedon test (PHAECO spray treatment). The note with it: 168 h, read-out: activity (beetle larvae killed).

Consider `CNC(=O)c1cc(C#N)cc(C)c1NC(=O)c1cc(C(=O)Cn2nnc(C(F)(F)F)n2)nn1-c1ncccc1Cl` [Example 15], for which the “activity (aphids killed)” value in data set [1] was found to be 90%. In addition, in data set [2], the pest or weed control at 20 g/ha turned out to be 100%. Besides, the “efficacy (no fertile eggs laid)” value in data set [3] came out at 100%. Besides, in data set [4], the “efficacy (kill of larvae)” value is on record as 100%. In data set [5], this compound showed a chromatographic logP of 2.89. In addition, in data set [6], the pest or weed control at 100 g/ha was 100%.

A word on the chromatographic logP: it is lipophilicity estimated from chromatographic retention.

Source of the values: patent publication US8791139B2, “Anthranilic diamide derivatives” (Bayer Cropscience AG, priority 2010, dated 2014).
